This experiment concerns Cell Necrosis. Kind of experiment: Cell necrosis assay / cell viability assay (necrosis inhibitor activity). It counts as cell-based.
Where [1] appears, read: necrosis inhibitor activity, EC data for 14-191 extrapolated, read-out: EC50.
Where [2] appears, read: necrosis inhibitor activity, compounds outside 14-191, read-out: EC50.

The values that follow come from patent US12662469B2 (SIRONAX LTD, priority 2018, dated 2026).

Read-outs that look alike come from different tables or passages of the source.

Broadly, the EC50 is the midpoint of the concentration-response curve.

As to `Cc1cnc(N2CCN(C(=O)N3N=CCC3c3ccccc3)CC2)s1` (stereo not drawn) [Compound 106, (4-(5-methylthiazol-2-yl)piperazin-1-yl)(5-phenyl-4,5-dihydro-1H-pyrazol-1-yl)methanone], the EC50 under setting [1] is 1000 to 10000 nM.

Take `COc1nc(N2CCN(C(=O)N3N=CC[C@H]3c3cc(F)cc(F)c3)CC2)ncc1F` [Compound 271, (S)-(5-(3,5-difluorophenyl)-4,5-dihydro-1H-pyrazol-1-yl)(4-(5-fluoro-4-methoxypyrimidin-2-yl)piperazin-1-yl)methanone]: the EC50 under setting [2] fell in the range of 1 to 1000 nM. Still for that read-out and setting: under `O=C(N1CC(=Cc2cc3[nH]nc(F)c3cc2F)C1)N1N=CCC1c1ccccc1` (stereo not drawn) [Compound 296, (3-((3,5-difluoro-1H-indazol-6-yl)methylene)azetidin-1-yl)(5-phenyl-4,5-dihydro-1H-pyrazol-1-yl)methanone] stands 1 to 1000 nM. In the case of `N#Cc1cccc(OC2CN(C(=O)N3N=CCC3c3cc(F)cc(F)c3)C2)c1` (stereo not drawn) [Compound 71, 3-((1-(5-(3,5-difluorophenyl)-4,5-dihydro-1H-pyrazole-1-carbonyl)azetidin-3-yl)oxy)benzonitrile], the EC50 under setting [1] is 1 to 1000 nM. Consider `CN(C(=O)N1N=CCC1c1ccccc1)C1CCCCC1` (stereo not drawn) [Compound 12, N-cyclohexyl-N-methyl-5-phenyl-4,5-dihydro-1H-pyrazole-1-carboxamide], for which the EC50 under setting [2] was 1000 to 10000 nM. Regarding `O=C(N1CC(Oc2nc(NCCO)ncc2F)C1)N1N=CC[C@H]1c1cc(F)cc(F)c1` [Compound 266, (S)-(5-(3,5-difluorophenyl)-4,5-dihydro-H-pyrazol-1-yl)(3-((5-fluoro-2-((2-hydroxyethyl)amino)pyrimidin-4-yl)oxy)azetidin-1-yl)methanone], the EC50 under setting [2] was in the range of 1 to 1000 nM. On the same count and under the same terms, then `NC(=O)c1cc(Cl)nc(O[C@H]2CCN(C(=O)N3N=CC[C@H]3c3cc(F)cc(F)c3)C2)c1` [Compound 331, 2-chloro-6-(((S)-1-((S)-5-(3,5-difluorophenyl)-4,5-dihydro-1H-pyrazole-1-carbonyl)pyrrolidin-3-yl)oxy)isonicotinamide], with 1 to 1000 nM; and `N#Cc1ccc(F)c(OC2CN(C(=O)N3N=CC[C@H]3c3cc(F)cc(F)c3)C2)c1` [Compound 235, (S)-3-((1-(5-(3,5-difluorophenyl)-4,5-dihydro-1H-pyrazole-1-carbonyl)azetidin-3-yl)oxy)-4-fluorobenzonitrile], with 1 to 1000 nM. Same read-out and setting: then `O=C(N1CC(=Cc2ccc(Cl)nc2Cl)C1)N1N=CC[C@H]1c1cc(F)cc(F)c1` [Compound 316, (S)-(3-((2,6-dichloropyridin-3-yl)methylene)azetidin-1-yl)(5-(3,5-difluorophenyl)-4,5-dihydro-1H-pyrazol-1-yl)methanone], with 1 to 1000 nM; and `COCCC1Oc2cc(F)c(OC3CN(C(=O)N4N=CC[C@H]4c4cc(F)cc(F)c4)C3)cc2N(C)C1=O` (stereo partly drawn) [Compound 247], with 1 to 1000 nM; and `Nc1cc(F)c(F)c(C=C2CN(C(=O)N3N=CC[C@H]3c3cc(F)cc(F)c3)C2)c1` [Compound 299, (S)-(3-(5-amino-2,3-difluorobenzylidene)azetidin-1-yl)(5-(3,5-difluorophenyl)-4,5-dihydro-1H-pyrazol-1-yl)methanone], with 1 to 1000 nM. For the compound `N#Cc1csc(OC2CN(C(=O)N3N=CCC3c3ccccc3)C2)n1` (stereo not drawn) [Compound 121, 2-((1-(5-phenyl-4,5-dihydro-1H-pyrazole-1-carbonyl)azetidin-3-yl)oxy)thiazole-4-carbonitrile], the EC50 under setting [1] is 1 to 1000 nM. Regarding `O=C(N1CC(Oc2ccc(Cl)nc2F)C1)N1N=CC[C@H]1c1cc(F)cc(F)c1` [Compound 338, (S)-(3-((6-chloro-2-fluoropyridin-3-yl)oxy)azetidin-1-yl)(5-(3,5-difluorophenyl)-4,5-dihydro-1H-pyrazol-1-yl)methanone], the EC50 under setting [2] lay within 1 to 1000 nM.

As to `O=C(N1CC(=Cc2ccc(F)cc2)C1)N1N=CCC1c1cncc(F)c1` (stereo not drawn) [Compound 309, (3-(4-fluorobenzylidene)azetidin-1-yl)(5-(5-fluoropyridin-3-yl)-4,5-dihydro-1H-pyrazol-1-yl)methanone], under setting [2], the EC50 lay in the range of 1 to 1000 nM. Same read-out and setting: under `O=C(N1Cc2ccccc2C1)N1N=CCC1c1ccccc1` (stereo not drawn) [Compound 13, Isoindolin-2-yl(5-phenyl-4,5-dihydro-1H-pyrazol-1-yl)methanone] stands 1 to 1000 nM. `O=C(N1CC(Oc2ccc(F)c(F)c2)C1)N1N=CCC1c1ccccc1` (stereo not drawn) [Compound 66, (3-(3,4-difluorophenoxy)azetidin-1-yl)(5-phenyl-4,5-dihydro-1H-pyrazol-1-yl)methanone]: under setting [1], the EC50 is 1 to 1000 nM. Consider `O=C(N1CC(=Cc2cnc3c(F)n[nH]c3c2)C1)N1N=CC[C@H]1c1cc(F)cc(F)c1` [Compound 327], for which the concentration giving a half-maximal response (EC50) under setting [2] was 1 to 1000 nM.

As to `O=C(N1CC(Cc2cccc(Cl)c2)C1)N1N=CCC1c1ccccc1` (stereo not drawn) [Compound 48, (3-(3-chlorobenzyl)azetidin-1-yl)(5-phenyl-4,5-dihydro-1H-pyrazol-1-yl)methanone], the EC50 under setting [1] was 1 to 1000 nM.

In turn, `O=C(N1CCN(Cc2ccccc2)CC1)N1N=CCC1c1ccccc1` (stereo not drawn) [Compound 97, (4-benzylpiperazin-1-yl)(5-phenyl-4,5-dihydro-1H-pyrazol-1-yl)methanone] yielded a concentration giving a half-maximal response (EC50) of 1000 to 10000 nM. On to `O=C(NC1CCC(c2ccccc2)C1)N1N=CCC1c1ccccc1` (stereo not drawn) [Compound 21, 5-phenyl-N-(3-phenylcyclopentyl)-4,5-dihydro-1H-pyrazole-1-carboxamide], for which the EC50 under setting [1] is 1 to 1000 nM. Still for that read-out and setting: then `O=C(N1CC(Cc2ccc3nc[nH]c3c2)C1)N1N=CCC1c1cc(F)cc(F)c1` (stereo not drawn) [Compound 191], with 1 to 1000 nM. Take `N#Cc1cc(OC2CN(C(=O)N3N=CC[C@H]3c3cc(F)cc(F)c3)C2)c(F)cc1F` [Compound 238, (S)-5-((1(5-(3,5-difluorophenyl)-4,5-dihydro-1H-pyrazole-1-carbonyl)azetidin-3-yl)oxy)-2,4-difluorobenzonitrile]: the EC50 under setting [2] is 1 to 1000 nM. With `O=C1CCc2cc(F)c(OC3CN(C(=O)N4N=CC[C@H]4c4cc(F)cc(F)c4)C3)cc2N1` [Compound 202, (S)-7-((1-(5-(3,5-difluorophenyl)-4,5-dihydro-1H-pyrazole-1-carbonyl)azetidin-3-yl)oxy)-6-fluoro-3,4-dihydroquinolin-2(1H)-one], under setting [2], the EC50 lay in the range of 1 to 1000 nM.

Turning to `N#Cc1cc(Cl)nc(O[C@H]2CCN(C(=O)N3N=CC[C@H]3c3cc(F)cc(F)c3)C2)c1` [Compound 330, 2-chloro-6-(((S)-1-((S)-5-(3,5-difluorophenyl)-4,5-dihydro-1H-pyrazole-1-carbonyl)pyrrolidin-3-yl)oxy)isonicotinonitrile], under setting [2], the EC50 fell in the range of 1 to 1000 nM. For `N#Cc1cnc(OC2CN(C(=O)N3N=CCC3c3ccccc3)C2)s1` (stereo not drawn) [Compound 120, 2-((1-(5-phenyl-4,5-dihydro-1H-pyrazole-1-carbonyl)azetidin-3-yl)oxy)thiazole-5-carbonitrile], the EC50 under setting [1] was 1000 to 10000 nM. The same measure, in the same setting: under `O=C(N1CC[C@H](Oc2ccccc2)C1)N1N=CCC1c1ccccc1` (stereo partly drawn) [Compound 27A, ((S)-3-phenoxypyrrolidin-1-yl)(S-phenyl-4,5-dihydro-1H-pyrazol-1-yl)methanone] stands 1000 to 10000 nM; under `O=C(N1CC(Oc2ccc(F)cc2Cl)C1)N1N=CCC1c1ccccc1` (stereo not drawn) [Compound 67, (3-(2-chloro-4-fluorophenoxy)azetidin-1-yl)(5-phenyl-4,5-dihydro-1H-pyrazol-1-yl)methanone], 1 to 1000 nM. On the same count and under the same terms, then `O=C(N1CC(=Cc2ccc(F)c(F)c2)C1)N1N=CCC1c1cc(F)cc(F)c1` (stereo not drawn) [Compound 140, (3-(3,4-difluorobenzylidene)azetidin-1-yl)(5-(3,5-difluorophenyl)-4,5-dihydro-1H-pyrazol-1-yl)methanone], with 1 to 1000 nM.

Regarding `O=C(N1CC(Oc2ccc3cc[nH]c3c2)C1)N1N=CC[C@H]1c1cc(F)cc(F)c1` [Compound 223, (S)-(3-((1H-indol-6-yl)oxy)azetidin-1-yl)(5-(3,5-difluorophenyl)-4,5-dihydro-1H-pyrazol-1-yl)methanone], the EC50 under setting [2] is 1 to 1000 nM. Still for that read-out and setting: then `CCC1Oc2cc(F)c(OC3CN(C(=O)N4N=CC[C@H]4c4cc(F)cc(F)c4)C3)cc2NC1=O` (stereo partly drawn) [Compound 250, 6-((1-((S)-5-(3,5-difluorophenyl)-4,5-dihydro-1H-pyrazole-1-carbonyl)azetidin-3-yl)oxy)-2-ethyl-7-fluoro-2H-benzo[b][1,4]oxazin-3(4H)-one], with 1 to 1000 nM. Consider `O=C(N1CC(=Cc2cccc(F)c2)C1)N1N=CCC1c1ccccc1` (stereo not drawn) [Compound 45, (3-(3-fluorobenzylidene)azetidin-1-yl)(5-phenyl-4,5-dihydro-1H-pyrazol-1-yl)methanone], for which the EC50 under setting [1] was 1 to 1000 nM. Still for that read-out and setting: under `O=C(N1CC(=Cc2ccc(F)cc2)C1)N1N=CCC1c1cc(F)cc(F)c1` (stereo not drawn) [Compound 57, (5-(3,5-difluorophenyl)-4,5-dihydro-1H-pyrazol-1-yl)(3-(4-fluorobenzylidene)azetidin-1-yl)methanone] stands 1 to 1000 nM. Turning to `CC1CN(C(=O)N2N=CCC2c2ccccc2)C1` (stereo not drawn) [Compound 4, (3-methylazetidin-1-yl)(5-phenyl-4,5-dihydro-1H-pyrazol-1-yl)methanone], under setting [2], the EC50 fell in the range of 1 to 1000 nM. For the compound `O=C1COc2cc(F)c(OC3CN(C(=O)N4N=CC[C@@H]4c4ccccc4)C3)cc2N1` [(R)-7-fluoro-6-((1-(5-phenyl-4,5-dihydro-1H-pyrazole-1-carbonyl)azetidin-3-yl)oxy)-2H-benzo[b][1,4]oxazin-3(4H)-one], the “activity based on the cell activity assay” value was “weak activity”.

For the compound `NC(=O)CC[C@@H]1Oc2cc(F)c(OC3CN(C(=O)N4N=CC[C@H]4c4cc(F)cc(F)c4)C3)cc2NC1=O` [Compound 245, 3-((S)-6-((1-((S)-5-(3,5-difluorophenyl)-4,5-dihydro-1H-pyrazole-1-carbonyl)azetidin-3-yl)oxy)-7-fluoro-3-oxo-3,4-dihydro-2H-benzo[b][1,4]oxazin-2-yl)propanamide], under setting [2], the EC50 lay in the range of 1 to 1000 nM.

In the case of `NC(=O)c1ccnc(O[C@@H]2CCN(C(=O)N3N=CC[C@H]3c3cc(F)cc(F)c3)C2)n1` [Compound 332, 2-(((R)-1-((S)-5-(3,5-difluorophenyl)-4,5-dihydro-1H-pyrazole-1-carbonyl)pyrrolidin-3-yl)oxy)pyrimidine-4-carboxamide], the EC50 under setting [2] was in the range of 1 to 1000 nM.
